SMILES strings stand for the structures.

Test [1] has as its system HAK-1A cell line (well differentiated HCC cell line). Put plainly: Cell migration assay (migration chamber), HAK-1A cell line. The class given is cell-based. The note with it: FIG. 3.
Test [2] concerns Focus cells (poorly differentiated HCC cell line). Kind of test: Cell migration assay (migration chamber), Focus cell line. The class given is cell-based. The method, then: (§1) Focus and Hub7 cells were treated with 10 μM of LM in DMSO or DMSO as a control for 24 hrs. The cells were transferred in a migration chamber (BD Biosciences). The lower chamber was filled with 10% FBS-containing medium as a chemoattractant and was separated from the upper chamber by a 8 μm pore membrane. After 16 hrs, the remaining cells in the upper chamber (non-migrated cells) were removed and the cell attached to the bottom of the membrane (migrated cells) were stained with crystal violet and counted using Stereologer (SRC) in 10 different fields of the membrane.
(§2) In another set of experiments, the effects of LM and Compound A on HCC cell migration and invasion were assessed using procedures similar to those described above using FOCUS cell line (poorly differentiated HCC cell line).

Test [3] deals with HCC cell lines Huh7, FOCUS, HAK-1A and HAK-1B. Kind of test: MTS assay (cytotoxicity). The test is classed as cell-based. Particulars: 24 or 72 hours; FIG. 17. The method, then:
MTS assay was performed to evaluate the toxicity of Compound A for HCC cell lines Huh7, FOCUS, HAK-1A and HAK-1B. Compound A, at various concentrations ranging from […], was incubated with the specified cells for 24 or 72 hours.
On the technique in general: Formazan colour is commonly taken as a measure of viable cells.

The subject of test [4] is HAK-1A cell line (well differentiated HCC cell line). Put plainly: Wound healing assay, HAK-1A cell line. The note with it: FIG. 6. The test is classed as cell-based. The method, then:
In another set of experiments, the effects of LM and Compound A on HCC cell migration were assessed using wound healing assay in HAK-1A cell line (well differentiated HCC cell line). The following procedures were used.
(§3) 1. Cell seeding: A grid on the underside of the plate (60 mm) was drawn according to the paper diagram. Cells were seeded on 60 mm dish (aimed for confluent cells).
(§4) 2. Scratch wound: Using a tip (green), a scratch wound was made. The locations of the wounds were recorded by drawing on a paper. SF DMEM+trypsin aliquot was retrieved from the incubator, and the media/floating cells from the dish was aspirated. Cells were washed with DMEM+Trypsin to remove cells that have not been completely scratched away from the wound. Then the dish was filled with 4 ml of 10% FBS DMEM.
(§5) 3. Taking photographs: The marker was included on the top of the image frame so the same wound area can be kept track of. Then pictures of those wounds for the indicated time points were taken. Results were expressed as percentage of wound closure, as an index of cell migration, normalized to the initial width.

In test [5] the test system is Focus cells (poorly differentiated HCC cell line). Put plainly: Cell invasion assay (Matrigel-coated chamber), Focus cell line. The class given is cell-based. On the procedure:
(§6) Focus and Hub7 cells were treated with 10 μM of LM in DMSO or DMSO as a control for 24 hrs. The cells were transferred in a migration chamber coated with Matrigel (BD Biosciences). After 16 hrs, invasive cells attached to the bottom of the membrane were stained/counted and normalized by the number of migrative cells in a corresponding non-coated migration chamber.
as §2

Test [6] relates to HAK1A-J xenograft. Kind of test: HAK1A-J xenograft models (tumor volume). The note with it: male mice; compared with control or LM treated mice; FIG. 21. The test is classed as in vivo. The method, then: Effects of LM and Compound A in HAK1A-J xenograft models were examined using 50 male mice 4 weeks of age. Anti-tumor effects of LM and Compound A were assessed following the xenograft by measuring tumor volume after the treatment by the drugs.

Test [7] has as its system FOCUS cell line (poorly differentiated HCC cell line). Put plainly: Wound healing assay, FOCUS cell line. The class given is cell-based. Particulars: FIG. 7. The method, then:
as §3, §4, §5
In another set of experiments, the effects of LM and Compound A on HCC cell migration were assessed using wound healing assay in FOCUS cell line (poorly differentiated HCC cell line).

Test [8] relates to HAK1A-J xenograft. Put plainly: HAK1A-J xenograft models, pilot study (tumor volume). The test is classed as in vivo, mice. Particulars: compared with control, FIG. 19. The method, then: Effects of LM and Compound A in HAK1A-J xenograft models were examined in a pilot study using 5 animals (mice). Anti-tumor effects of LM and Compound A were assessed following the xenograft by measuring tumor volume after the treatment by the drugs.

For test [9], the system named is TCF-4J isoform dependent target genes. Put plainly: qRT-PCR of TCF-4J responsive target genes in xenograft tumors. The test is classed as in vivo, mice. The note with it: for mRNA expression: HAK1A-J xenograft models, legend of FIG. 22, genes not named. The method, then: Effects of LM and Compound A on expression of TCF-4J responsive target genes in HAK-1A xenograft tumors were assessed by measuring mRNA expression levels of TCF-4J isoform dependent target genes in xenograft tumors treated with LM, Compound A and control vehicle. The following procedures were used: Total RNA was extracted from tumors using TRIzol Reagent, and reverse transcription was performed with First Strand cDNA Synthesis Kit for RT-PCR (AMV). Quantitative real-time PCR was carried out on a Mastercycler ep realplex instrument and software, using SYBR Green PCR reagents. Relative quantification was performed using ΔΔCt method, normalizing to 18S rRNA. Dissociation curves were generated to evaluate PCR product specificity and purity.
A general note: Real-time PCR tracks product formation cycle by cycle.

Test [10] deals with HAK-1B cell line (poorly differentiated HCC cell line). Put plainly: Cell invasion assay (Matrigel-coated chamber), HAK-1B cell line. Particulars: HAK-1B (printed HAK-1AB), FIG. 4. The class given is cell-based. On the procedure:
as §6
(§7) In another set of experiments, the effects of LM and Compound A on HCC cell migration and invasion were assessed using procedures similar to those described above, except that HAK-1B cell line (poorly differentiated HCC cell line) was employed.

Test [11] shares this test system. Put plainly: Cell migration assay (migration chamber), HAK-1B cell line. The class given is cell-based. Particulars: FIG. 4. On the procedure:
as §1, §7

Test [12] shares this test system. Kind of test: Wound healing assay, HAK-1B cell line. The class given is cell-based. Particulars: FIG. 8. On the procedure: as §3, §4, §5
In another set of experiments, the effects of LM and Compound A on HCC cell migration were assessed using wound healing assay in HAK-1B cell line (poorly differentiated HCC cell line).

Test [13] deals with TCF-4. Put plainly: Western blot of nuclear TCF-4 expression after LM treatment. Particulars: 10 μM, 24 hrs; poorly-differentiated cells (Focus); normalized by lamin; FIG. 1. The test is classed as cell-based. On the procedure:
Focus and Hub7 cells were treated with 10 μM of lenalidomide (“LM”) in DMSO or DMSO as a control for 24 hrs. Nuclear and cytosolic proteins were separately extracted and the expression of TCF-4 was analyzed by western blot. Nuclear expression of both long and short isoforms of TCF-4 was qualified using ImageJ (NIH) and normalized by expression of lamin.
On the technique in general: Immunoblotting shows a protein as a band on a membrane.

Where [14] appears, read: another set of experiments, FOCUS, poorly differentiated, FIG. 5.
Setting [15] is: xenograft tumors, ΔΔCt, normalized to 18S rRNA, FIG. 22.

Regarding `Cc1nc2cccc(N)c2c(=O)n1C1CCC(=O)NC1=O` (stereo not drawn) [Compound A, 3-(5-amino-2-methyl-4-oxo-4H-quinazolin-3-yl)-piperidine-2,6-dione], the cell migration entry in test [1] is “did not affect the cell migration”; in [2] (setting [14]) it was “did not inhibit cell migration”; in [11], “inhibited cell migration”. Also, the HCC cell proliferation entry in test [3] is on record as “no effect on HCC cell proliferation”. For the same compound, the “cell migration (wound closure)” value in [4] is reported as “did not affect the cell migration”; in test [7], “reduced cell migration”; in test [12], “reduced cell migration”. Further, the cell invasion entry in test [5] (setting [14]) and in [10] was “inhibited cell invasion” in each case. For the same compound, the results for the tumor volume result in test [6] and in [8] were “much more significantly reduced the volume of tumors” and “significantly reduced the volume of tumors”, respectively. Moreover, the mRNA expression entry in test [9] was “reduction of mRNA expression”. Besides, in test [9] (setting [15]), the “mRNA level of ANXA1” value is listed as “reduced”. Further, the “mRNA level of ASPH” value in [9] (setting [15]) is listed as “reduced”. The “mRNA level of CAMK2N1” value in test [9] (setting [15]) is listed as “reduced”. Moreover, the “mRNA level of CLDN2” value in test [9] (setting [15]) is “reduced”. The “mRNA level of GPR56” value in [9] (setting [15]) is recorded as “reduced”. Also, in [9] (setting [15]), the “mRNA level of JAG1” value is “reduced”.
Take `Nc1cccc2c1CN(C1CCC(=O)NC1=O)C2=O` (stereo not drawn) [LM, 1-oxo-2-(2,6-dioxopiperidin-3-yl)-4-aminoisoindoline, reference compound]: the “TCF-4 expression, short and long forms (nuclear)” value in test [13] is “decreased”. The cell migration entry in test [1] was “did not affect the cell migration”; in test [2] (10 μM, 24 hrs, migrated cells counted after 16 hrs, Focus, FIG. 2), “inhibited cell migration”; in [2] (setting [14]), “did not inhibit cell migration”; in test [11], “inhibited cell migration”. Moreover, the results for the “cell migration (wound closure)” value in test [4] and in test [7] were “did not affect the cell migration” and “reduced cell migration”, respectively. For the same compound, the cell invasion result in test [5] (10 μM, 24 hrs, invasive cells after 16 hrs, normalized by migrative cells, Focus, FIG. 2) is reported as “inhibited cell invasion”; in test [5] (setting [14]), “inhibited cell invasion”. For the same compound, the tumor volume result is on record as “reduction of tumor volume was observed” in [6] and “significantly reduced the volume of tumors” in test [8]. Further, the mRNA expression result in [9] is “reduction of mRNA expression”.

(Values after patent US8901110B2, “Use of biomarkers in methods for the treatment of hepatocellular carcinoma” (Celgene Corporation, priority 2012, dated 2014).)
